How the values were obtained:
[1] = rabbit, in vivo, ip, 100 mg/kg
[2] = organ weight variations in the rat after per os treatment; assay type: in vivo; conditions: 300 mg/kg per os
[3] = 21-day battery study in chickens (Example XIII); assay type: in vivo
Experimental: N-morpholinyl-β-benzoyl-propionamide was admixed with chicken feed at concentrations of 1.0 ppm, 7.5 ppm and 15 ppm. A 21-day battery study was conducted with the NMBP-containing feed. One group of controls was unmedicated, while a second control group received Bacitracin MD in its feed at 30 g/ton. The birds were fed ad libitum and weighed on days 7, 14 and 21. There were 10 birds per replication, 4 replications in controls and 2 replications per drug treatment.

[4] = 44-day floor pen study in chickens (Example XIV); assay type: in vivo
Experimental: A 44-day floor pen study was conducted in which n-morpholinyl-β-benzoyl-propionamide was administered in chicken feed at concentrations of 1 ppm, 2.5 ppm, 5 ppm, 10 ppm, 20 ppm, 40 ppm and 60 ppm. One group of controls received no medication in its feed, while a second control group received Bacitracin MD in its feed at 30 g/ton. Birds were fed ad libitum. There were 5 replications per treatment, 50 birds per replication. Birds were weighed to determine weight gain and feed-to-gain ration after 35 days and 44 days.

[5] = 44-day floor-pen study in chickens (Example XV); assay type: in vivo; conditions: 44 days
Excerpt: There were 60 chickens per replication, 3 replications per treatment. One group of controls was unmedicated, while a second control group received Bacitracin in the feed at 30 g/ton.

[6] = battery study in chickens (Example XVI); assay type: in vivo; conditions: for Mortality: unmedicated 1.1
Experimental: A battery study was conducted in which N-morpholinyl-β-benzoyl-propionamide was administered to chickens in their feed at levels at 2.5 ppm and 5.0 ppm. The control group was unmedicated. Each medicated treatment had 10 replications of 8 birds per replication, with non-medicated controls having 20 replications of 8 birds per replication. Birds were weighed to determine weight gain and feed-to-gain ratio on days 7, 14 and 21.

For `O=C(CCC(=O)N1CCOCC1)c1ccccc1` [NMBP, N-morpholinyl-β-benzoyl-propionamide], the “electrocardiographic variations compared to the controls” value [1] was “no electrocardiographic variations”, the “organ weight variation, suprarenal gland” value ([2]; controls +0.011) was “+0.011%” and the “organ weight variation, heart” value ([2]; controls +0.257) was “+0.304%”. The “organ weight variation, lung” value ([2]; controls +0.598) was “+0.675%”, the “organ weight variation, kidney” value ([2]; controls +0.65) was “+0.71%” and the “organ weight variation, liver” value ([2]; controls +3.22) was “+3.63%”. The F/G ([3]; feed 1 ppm, Day 7) was 1.38, the “Weight Gain” value ([3]; feed 1 ppm, Day 7) was 341 g and the F/G ([3]; feed 1 ppm, Day 14) was 1.47. For the same compound, the “Weight Gain” value ([3]; feed 1 ppm, Day 14) was 715 g, the F/G ([3]; feed 1 ppm, Day 21) was 1.62 and the “Weight Gain” value ([3]; feed 1 ppm, Day 21) was 1152 g. For the same compound, the F/G ([3]; feed 7.5 ppm, Day 7) was 1.40, the “Weight Gain” value ([3]; feed 7.5 ppm, Day 7) was 325 g and the F/G ([3]; feed 7.5 ppm, Day 14) was 1.49. For the same compound, the “Weight Gain” value ([3]; feed 7.5 ppm, Day 14) was 697 g, the F/G ([3]; feed 7.5 ppm, Day 21) was 1.60 and the “Weight Gain” value ([3]; feed 7.5 ppm, Day 21) was 1113 g. The F/G ([3]; feed 15 ppm, Day 7) was 1.42, the “Weight Gain” value ([3]; feed 15 ppm, Day 7) was 318 g and the F/G ([3]; feed 15 ppm, Day 14) was 1.47. The “Weight Gain” value ([3]; feed 15 ppm, Day 14) was 688 g, the F/G ([3]; feed 15 ppm, Day 21) was 1.54 and the “Weight Gain” value ([3]; feed 15 ppm, Day 21) was 1164 g. The F/G ([4]; feed 1 ppm, Day 35) was 1.60, the “Weight Gain” value ([4]; feed 1 ppm, Day 35) was 1379 g and the F/G ([4]; feed 1 ppm, Day 44) was 1.72. The “Weight Gain” value ([4]; feed 1 ppm, Day 44) was 1917 g, the F/G ([4]; feed 2.5 ppm, Day 35) was 1.55 and the “Weight Gain” value ([4]; feed 2.5 ppm, Day 35) was 1431 g. For the same compound, the F/G ([4]; feed 2.5 ppm, Day 44) was 1.69, the “Weight Gain” value ([4]; feed 2.5 ppm, Day 44) was 1961 g and the F/G ([4]; feed 5 ppm, Day 35) was 1.61. For the same compound, the “Weight Gain” value ([4]; feed 5 ppm, Day 35) was 1381 g, the F/G ([4]; feed 5 ppm, Day 44) was 1.72 and the “Weight Gain” value ([4]; feed 5 ppm, Day 44) was 1929 g. The F/G ([4]; feed 10 ppm, Day 35) was 1.60, the “Weight Gain” value ([4]; feed 10 ppm, Day 35) was 1356 g and the F/G ([4]; feed 10 ppm, Day 44) was 1.74. For the same compound, the “Weight Gain” value ([4]; feed 10 ppm, Day 44) was 1883 g, the F/G ([4]; feed 20 ppm, Day 35) was 1.61 and the “Weight Gain” value ([4]; feed 20 ppm, Day 35) was 1364 g. For the same compound, the F/G ([4]; feed 20 ppm, Day 44) was 1.72, the “Weight Gain” value ([4]; feed 20 ppm, Day 44) was 1901 g and the F/G ([4]; feed 40 ppm, Day 35) was 1.63. For the same compound, the “Weight Gain” value ([4]; feed 40 ppm, Day 35) was 1334 g, the F/G ([4]; feed 40 ppm, Day 44) was 1.72 and the “Weight Gain” value ([4]; feed 40 ppm, Day 44) was 1898 g. For the same compound, the F/G ([4]; feed 60 ppm, Day 35) was 1.57, the “Weight Gain” value ([4]; feed 60 ppm, Day 35) was 1334 g and the F/G ([4]; feed 60 ppm, Day 44) was 1.72. The “Weight Gain” value ([4]; feed 60 ppm, Day 44) was 1875 g, the “Average Live Bird Weight” value ([5]; feed 1.0 ppm) was 2.13 kg and the “Feed Conversion” value ([5]; feed 1.0 ppm) was 1.72. For the same compound, the “Average Live Bird Weight” value ([5]; feed 2.5 ppm) was 2.14 kg, the “Feed Conversion” value ([5]; feed 2.5 ppm) was 1.73 and the “Average Live Bird Weight” value ([5]; feed 5 ppm) was 2.08 kg. The “Feed Conversion” value ([5]; feed 5 ppm) was 1.75, the “Average Live Bird Weight” value ([5]; feed 10 ppm) was 2.14 kg and the “Feed Conversion” value ([5]; feed 10 ppm) was 1.72. For the same compound, the “Average Live Bird Weight” value ([5]; feed 20 ppm) was 2.12 kg, the “Feed Conversion” value ([5]; feed 20 ppm) was 1.72 and the “Average Live Bird Weight” value ([5]; feed 40 ppm) was 2.10 kg. The “Feed Conversion” value ([5]; feed 40 ppm) was 1.75, the “Average Live Bird Weight” value ([5]; feed 60 ppm) was 2.14 kg and the “Feed Conversion” value ([5]; feed 60 ppm) was 1.75. The “Feed Conversion” value ([6]; feed 2.5 ppm, D + 7) was 1.67, the “Weight Gain” value ([6]; feed 2.5 ppm, D + 7) was 256 g and the “Feed Conversion” value ([6]; feed 2.5 ppm, D + 14) was 1.98. The “Weight Gain” value ([6]; feed 2.5 ppm, D + 14) was 526 g, the “Feed Conversion” value ([6]; feed 2.5 ppm, D + 21) was 1.70 and the “Weight Gain” value ([6]; feed 2.5 ppm, D + 21) was 1075 g. The Mortality ([6]; feed 2.5 ppm) was 1.4, the “Feed Conversion” value ([6]; feed 5.0 ppm, D + 7) was 1.65 and the “Weight Gain” value ([6]; feed 5.0 ppm, D + 7) was 262 g. The “Feed Conversion” value ([6]; feed 5.0 ppm, D + 14) was 2.02, the “Weight Gain” value ([6]; feed 5.0 ppm, D + 14) was 523 g and the “Feed Conversion” value ([6]; feed 5.0 ppm, D + 21) was 1.71. The “Weight Gain” value ([6]; feed 5.0 ppm, D + 21) was 1027 g and the Mortality ([6]; feed 5.0 ppm) was “.8”.

— patent US4950669A, “Methods and compositions for promoting growth of animals” (priority 1987, dated 1990)
